# “Also recorded” adds a separate entry of the source.
# Columns and labels:
# [1] = tested on: colorectal carcinoma (HCT-116); test: SRB cytotoxicity assay, HCT-116; format: cell-based; details: Homo sapiens, HCT-116 cells
# Procedure: (§1) The SRB colorimetric assay was employed to assess the synthesized compounds’ cytotoxic effects on several cancer cell lines (Table 1)[11–14]. […] Furthermore, the effect of tested compounds was evaluated on the normal immortalized HPDE cell line.
# (§2) Sulforhodamine B (SRB) assay was employed to assay in-vitro antitumor activities of all the synthesised compounds as describer previously. […] The cell lines were obtained from the American Type Culture Collection (Rockville, USA).
# [2] = tested on: pancreatic human cancer cell lines (BxPC-3); test: SRB cytotoxicity assay, BxPC-3; format: cell-based; details: BxPC-3 cells
# Procedure: as §1, §2
# [3] = tested on: human hepatocellular carcinoma (HepG-2); test: SRB cytotoxicity assay, HepG-2; format: cell-based; details: HepG2, HepG-2 cells
# Procedure: as §1, §2
# [4] = tested on: MCF-7 breast cancer cell line; test: Flow cytometric cell cycle analysis; format: cell-based, human
# Description: Clearly, compound 7f enhanced the accumulation proportion of cells at the pre-G1 phase from 2.19 to 41.36%, and the accumulation percentages in S phase from 31.87 to 46.36%. […] Figure 8).
# [5] = tested on: MCF-7 breast cancer cell line; test: Annexin-V-FITC/PI cell apoptosis assay; format: cell-based, human; details: MCF-7, Annexin V-FITC/PI, 24 h
# Procedure: Cell cycle analysis was done for the compound 7f against MCF-7 breast cancer cell line[11]^,[14]. Clearly, compound 7f enhanced the accumulation proportion of cells at the pre-G1 phase from 2.19 to 41.36%, and the accumulation percentages in S phase from 31.87 to 46.36%.
# Flow cytometric analysis using Annexin-V-fluoresce in isothiocyanate (FITC) and propidium iodide (PI) staining kit (BD Pharmingen, San Diego, USA) was performed to assess the apoptosis. At 70% confluence, the cells were treated with compound 7f at different concentrations of (0–8 μmol/l) for 24 h. Then after trypsinization of cells, washing with PBS and centrifugation, the cells were mixed with FITC and PI in binding buffer. Becton Dickinson (Franklin Lakes, NJ, USA) was used to do the flow cytometry analysis[16]^,[17].
# Bax = test: Western blot of Bax expression in MCF-7; format: cell-based, human
# Procedure: (§3) The effect of compound 7f on the expression of DHFR, Casp3, Bax, and Bcl-2 proteins in MCF-7 cancer cells was evaluated by western blotting as previously performed. The cancer cells treated or untreated were collected were harvested and blotted on SDS-polyacrylamide gel and separated by Cleaver electrophoresis unit (Cleaver, UK), transferred onto polyvinylidene fluoride (PVDF) membranes (Millipore, USA) for 30 min using a Semi-dry Electroblotter (Biorad, USA) at 2.5 A and 25 V for 30 min. […] After washing, the chemiluminescent Western ECL substrate (Perkin Elmer, Waltham, MA, USA) was applied to the blot and then incubated for 1 min with a mixture of equal volumes from ECL solution A and ECL solution B. The chemiluminescent signals were captured using a CCD camera-based imager (Chemi Doc imager, Biorad, USA), and the bands intensities were then measured by Image J software program. […] For colorimetric assays two-way ANOVA test followed by Bonferroni posttest were used, while for quantification expression on western blot, student-t-test was used (significance p < 0.05). […]
# (§4) Sodium dodecyl sulfate polyacrylamide gel electrophoresis (SDS-PAGE) is used to separate proteins based on their size. […] The secondary antibody is typically linked to an enzyme that produces luminescence upon the reaction with its substrate. […]
# Bcl-2 [6] = test: Western blot of Bcl-2 expression in MCF-7; format: cell-based, human
# Procedure: as §3, §4
# Bcl-2 [7] = test: Bcl-2 ELISA in MCF-7; format: cell-based, human; details: dose-dependent
# Procedure: The apoptotic effect of compound 7f on breast cancer cell line MCF-7 were evaluated by quantification of Bax, caspase 3/7, and Bcl-2 using Bax ELISA Kit ab199080 (ABCAM, Cambridge, UK), Caspase-Glo 3/7 assay kits (Promega, Fitchburg, MA, USA), and Bcl-2 ELISA Kit ab119506 (ABCAM, Cambridge, UK), according the instructions of manufacturers[11]^,[14]. The cells were treated with compounds 7f (½ IC50, IC50, or 2 ×IC50), and the activities were shown as a percentage change from the untreated control. The experiments were performed in triplicate applying two-way ANOVA test followed by Bonferroni posttest to evaluate the significance (p < 0.05).
smiles,measurement,setting,value
"N=C(N)NCCCC(NC(=O)c1ccc(Nc2ncnc3c2cnn3-c2ccccc2)cc1)C(=O)O (stereo not shown) [Compound 7f, 5-Guanidino-2-{4-[(1-phenyl-1H-pyrazolo[3,4-d]pyrimidin-4-yl)amino]benzamido}pentanoic acid]",IC50,[1],5.48 ± 0.04 µM
same,IC50,[2],7.09 ± 0.09 µM
same,IC50,[3],5.12 ± 0.01 µM
same,Comment (cell cycle arrest),[4]; MCF-7 cells,arrested cell cycle at S phase; also recorded: Cell growth arrest at S
same,%Pre-G1,"[4]; MCF-7 cells treated with the compound, control 2.19",41.36%
same,%G2/M,"[4]; MCF-7 cells treated with the compound, control 12.01",1.5%
same,%S,"[4]; MCF-7 cells treated with the compound, control 31.87",46.39%
same,%G0-G1,"[4]; MCF-7 cells treated with the compound, control 56.12",52.11%
same,Apoptosis Late,[5]; control 0.13,21.31%
same,Apoptosis Early,[5]; control 0.66,14.12%
same,Necrosis,[5]; control 1.4,5.93%
same,western blotting OD Bax,"Bax; MCF7 cells, Cont.MCF7 0.152",0.346 OD
same,expression of Bax (western blot),Bax; MCF-7,significantly increased the expression
same,western blotting OD Bcl2,"Bcl-2 [6]; MCF7 cells, Cont.MCF7 0.762",0.501 OD
same,expression of Bcl-2 (western blot),"Bcl-2 [6]; MCF-7, compound at IC50",significantly down-regulated the expression of Bcl-2
same,Bcl-2 production (ELISA),Bcl-2 [7],significantly reduced the Bcl-2 production
